Measurements reported in US20230192717A1, “COMPOSITIONS AND METHODS OF MODULATING SHORT-CHAIN DEHYDROGENASE ACTIVITY” (RODEO THERAPEUTICS CORPORATION, priority 2020, published 2023).
Converted amounts (≈) assume the structure as drawn.

Target: T1, recombinant 15-PGDH (Homo sapiens, UniProt P15428)
T1 sequence (P15428 1-266): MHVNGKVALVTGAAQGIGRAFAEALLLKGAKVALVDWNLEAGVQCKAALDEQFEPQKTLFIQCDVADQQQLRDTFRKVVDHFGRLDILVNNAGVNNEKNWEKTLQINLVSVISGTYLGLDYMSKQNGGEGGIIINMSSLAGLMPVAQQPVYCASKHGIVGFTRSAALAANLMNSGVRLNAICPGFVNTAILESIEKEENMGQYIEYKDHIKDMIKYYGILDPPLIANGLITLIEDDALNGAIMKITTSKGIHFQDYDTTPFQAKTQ
Assay: inhibition of enzymatic activity of recombinant 15-PGDH in vitro
Assay type: biochemical
Details: recombinant human 15-PGDH
From the text: The Recombinant 15-PGDH is human unless otherwise specified.

Row | IC50 [nM] | Structure (SMILES)
1 | > 10 | CNc1ncc(-c2cc(C(C)C)c3c(N)c([S+]([O-])CCOC)sc3n2)cn1 (stereo in doubt) [Compound 23, 5-{3-amino-2-[(R)-2-methoxyethanesulfinyl]-4-(propan-2-yl)thieno[2,3-b]pyridin-6-yl}-N-methylpyrimidin-2-amine]
2 | > 10 | Cn1nccc1-c1cc(-c2cnc3ncccc3c2)nc2sc([S@@+]([O-])C3CCC3)c(N)c12 (stereo in doubt) [Compound 27, 2-(cyclobutanesulfinyl)-4-(1-methyl-1H-pyrazol-5-yl)-6-(1,8-naphthyridin-3-yl)thieno[2,3-b]pyridin-3-amine]
3 | < 2.5 | Cn1nccc1-c1cc(-c2ccc3cncnc3c2)nc2sc([S@+]([O-])C3CCC3)c(N)c12 [Compound 2, 2-[(R)-cyclobutanesulfinyl]-4-(1-methyl-1H-pyrazol-5-yl)-6-(quinazolin-7-yl)thieno[2,3-b]pyridin-3-amine]
4 | 2.5 to 10 | Cn1nccc1-c1cc(-c2cnc3ncccn23)nc2sc([S@+]([O-])C3CCC3)c(N)c12 [Compound 5, 2-[(R)-cyclobutanesulfinyl]-6-{imidazo[1,2-a]pyrimidin-3-yl}-4-(1-methyl-1H-pyrazol-5-yl)thieno[2,3-b]pyridin-3-amine]
5 | < 2.5 | COCC[S+]([O-])c1sc2nc(-c3cnc4nccnc4c3)cc(C3CCC3)c2c1N (centres unmarked) [Compound 7, 4-cyclobutyl-2-(2-methoxyethanesulfinyl)-6-{pyrido[2,3-b]pyrazin-7-yl}thieno[2,3-b]pyridin-3-amine]
6 | > 10 | CC(C)c1cc(-c2cnc(NCCO)nc2)nc2sc([S@@+]([O-])C3CCC3)c(N)c12 [Compound 8]
7 | < 2.5 | Cn1nccc1-c1cc(-c2ccc3ncncc3c2)nc2sc([S@+]([O-])C3CCC3)c(N)c12 [Compound 10, 2-[(R)-cyclobutanesulfinyl]-4-(1-methyl-1H-pyrazol-5-yl)-6-(quinazolin-6-yl)thieno[2,3-b]pyridin-3-amine]
8 | < 2.5 | COCC[S@@+]([O-])c1sc2nc(-c3cnc4cnccn34)cc(C3CCC3)c2c1N [Compound 11, (R)-4-cyclobutyl-6-(imidazo[1,2-a]pyrazin-3-yl)-2-((2-methoxyethyl)sulfinyl)thieno[2,3-b]pyridin-3-amine]
9 | < 2.5 | COCC[S@@+]([O-])c1sc2nc(-c3cnc4cnccn34)cc(-c3ccnn3C)c2c1N [Compound 13, (R)-6-(imidazo[1,2-a]pyrazin-3-yl)-2-((2-methoxyethyl)sulfinyl)-4-(1-methyl-1H-pyrazol-5-yl)thieno[2,3-b]pyridin-3-amine]
10 | < 2.5 | Cn1cc2cc(-c3cc(C4CC5(COC5)C4)c4c(N)c([S@+]([O-])C5CCC5)sc4n3)cnc2n1 [Compound 14, (R)-2-(cyclobutylsulfinyl)-6-(2-methyl-2H-pyrazolo[3,4-b]pyridin-5-yl)-4-(2-oxaspiro[3.3]heptan-6-yl)thieno[2,3-b]pyridin-3-amine]
11 | > 10 | CC(C)c1cc(-c2cnc(N)nc2)nc2sc([S@@+]([O-])C3CCC3)c(N)c12 [Compound 21]
12 | < 2.5 | CNc1ncc(-c2cc(C(C)C)c3c(N)c([S@+]([O-])CCOC)sc3n2)cn1 [Compound 22, 5-{3-amino-2-[(R)-2-methoxyethanesulfinyl]-4-(propan-2-yl)thieno[2,3-b]pyridin-6-yl}-N-methylpyrimidin-2-amine]
13 | < 2.5 | COCC[S@@+]([O-])c1sc2nc(-c3cnc4nn(C)cc4c3)cc(C(C)(C)C)c2c1N [Compound 28, 4-tert-butyl-2-[(R)-2-methoxyethanesulfinyl]-6-{2-methyl-2H-pyrazolo[3,4-b]pyridin-5-yl}thieno[2,3-b]pyridin-3-amine]
14 | < 2.5 | COCC[S+]([O-])c1sc2nc(-c3cnc4c(c3)OCCN4)cc(-c3ccnn3C)c2c1N (centres unmarked) [Compound 32, 2-(2-methoxyethanesulfinyl)-4-(1-methyl-1H-pyrazol-5-yl)-6-{2H,3H,4H-pyrido[3,2-b][1,4]oxazin-7-yl}thieno[2,3-b]pyridin-3-amine]
15 | < 2.5 | CC(C)c1cc(-c2cc(=O)n(C)cn2)nc2sc([S@+]([O-])C3CCC3)c(N)c12 [Compound 33, 6-{3-amino-2-[(R)-cyclobutanesulfinyl]-4-(propan-2-yl)thieno[2,3-b]pyridin-6-yl}-3-methyl-3,4-dihydropyrimidin-4-one]
16 | < 2.5 | COCC[S@@+]([O-])c1sc2nc(-c3cc(=O)n(C)cn3)cc(C(C)C)c2c1N [Compound 34, 6-{3-amino-2-[(R)-2-methoxyethanesulfinyl]-4-(propan-2-yl)thieno[2,3-b]pyridin-6-yl}-3-methyl-3,4-dihydropyrimidin-4-one]
17 | < 2.5 | CC(C)(C)c1cc(-c2cnc(N)nc2)nc2sc([S@+]([O-])C3CCC3)c(N)c12 [Compound 35, 5-{3-amino-4-tert-butyl-2-[(R)-cyclobutanesulfinyl]thieno[2,3-b]pyridin-6-yl}pyrimidin-2-amine]
18 | < 2.5 | COCC[S@@+]([O-])c1sc2nc(-c3cc(=O)n(C)cn3)cc(-c3ccccc3)c2c1N [Compound A, reference compound]

Further lines, the compound ahead of its results:

Row | Structure (SMILES) | IC50 [nM]
19 | COCC[S+]([O-])c1sc2nc(-c3ccc4nccnc4c3)cc(C(C)C)c2c1N (single isomer, unassigned) [Compound 25, 2-[2-methoxyethanesulfinyl]-4-(propan-2-yl)-6-(quinoxalin-6-yl)thieno[2,3-b]pyridin-3-amine] | > 10
20 | COCC[S@@+]([O-])c1sc2nc(-c3cnc(N)nc3)cc(C(C)C)c2c1N (stereo in doubt) [Compound 18, 5-{3-amino-2-[2-methoxyethanesulfinyl]-4-(propan-2-yl)thieno[2,3-b]pyridin-6-yl}pyrimidin-2-amine] | < 2.5
21 | COCC[S@+]([O-])c1sc2nc(-c3cnc(N)nc3)cc(C(C)C)c2c1N (stereo in doubt) [Compound 19, 5-{3-amino-2-[2-methoxyethanesulfinyl]-4-(propan-2-yl)thieno[2,3-b]pyridin-6-yl}pyrimidin-2-amine] | > 10
22 | COCC[S@@+]([O-])c1sc2nc(-c3ccc4nccnc4c3)cc(C(C)C)c2c1N (stereo in doubt) [Compound 24, 2-[2-methoxyethanesulfinyl]-4-(propan-2-yl)-6-(quinoxalin-6-yl)thieno[2,3-b]pyridin-3-amine] | < 2.5
23 | Cn1nccc1-c1cc(-c2cnc3ncccc3c2)nc2sc([S@+]([O-])C3CCC3)c(N)c12 (stereo in doubt) [Compound 26, 2-(cyclobutanesulfinyl)-4-(1-methyl-1H-pyrazol-5-yl)-6-(1,8-naphthyridin-3-yl)thieno[2,3-b]pyridin-3-amine] | < 2.5
24 | Cn1nccc1-c1cc(-c2ccc3nccnc3c2)nc2sc([S@+]([O-])C3CCC3)c(N)c12 [Compound 1, (R)-2-(cyclobutylsulfinyl)-4-(1-methyl-1H-pyrazol-5-yl)-6-(quinoxalin-6-yl)thieno[2,3-b]pyridin-3-amine] | < 2.5
25 | COCC[S+]([O-])c1sc2nc(-c3cnc4cccnc4c3)cc(-c3ccnn3C)c2c1N (centres unmarked) [Compound 3, 2-(2-methoxyethanesulfinyl)-4-(1-methyl-1H-pyrazol-5-yl)-6-(1,5-naphthyridin-3-yl)thieno[2,3-b]pyridin-3-amine] | < 2.5
26 | COCC[S@@+]([O-])c1sc2nc(-c3ccc4nccnc4c3)cc(-c3ccnn3C)c2c1N [Compound 4, 2-[(R)-2-methoxyethanesulfinyl]-4-(1-methyl-1H-pyrazol-5-yl)-6-(quinoxalin-6-yl)thieno[2,3-b]pyridin-3-amine] | < 2.5
27 | COCC[S+]([O-])c1sc2nc(-c3cnc4ncccc4c3)cc(C3CCC3)c2c1N (centres unmarked) [Compound 6, 4-cyclobutyl-2-(2-methoxyethanesulfinyl)-6-(1,8-naphthyridin-3-yl)thieno[2,3-b]pyridin-3-amine] | < 2.5
28 | Cn1nccc1-c1cc(-c2cnc3ncccc3c2)nc2sc([S+]([O-])C3CCC3)c(N)c12 (centres unmarked) [Compound 12, 2-(cyclobutanesulfinyl)-4-(1-methyl-1H-pyrazol-5-yl)-6-(1,8-naphthyridin-3-yl)thieno[2,3-b]pyridin-3-amine] | < 2.5
29 | COCC[S@@+]([O-])c1sc2nc(-c3ccc4ncncc4c3)cc(-c3ccnn3C)c2c1N [Compound 15, 2-[(R)-2-methoxyethanesulfinyl]-4-(1-methyl-1H-pyrazol-5-yl)-6-(quinazolin-6-yl)thieno[2,3-b]pyridin-3-amine] | < 2.5
30 | COCC[S@@+]([O-])c1sc2nc(-c3ccc4cncnc4c3)cc(-c3ccnn3C)c2c1N [Compound 16, 2-[(R)-2-methoxyethanesulfinyl]-4-(1-methyl-1H-pyrazol-5-yl)-6-(quinazolin-7-yl)thieno[2,3-b]pyridin-3-amine] | < 2.5
31 | COCC[S+]([O-])c1sc2nc(-c3cnc4nn(C)cc4c3)nc(C(C)C)c2c1N (centres unmarked) [Compound 17, 4-isopropyl-6-((2-methoxyethyl)sulfinyl)-2-(2-methyl-2H-pyrazolo[3,4-b]pyridin-5-yl)thieno[2,3-d]pyrimidin-5-amine] | < 2.5
32 | CC(C)c1cc(-c2cnc(N)nc2)nc2sc([S@+]([O-])C3CCC3)c(N)c12 [Compound 20] | < 2.5
33 | Cn1nccc1-c1cc(-c2cnc3c(c2)CNCC3)nc2sc([S+]([O-])C3CCC3)c(N)c12 (centres unmarked) [Compound 31, 2-(cyclobutanesulfinyl)-4-(1-methyl-1H-pyrazol-5-yl)-6-(5,6,7,8-tetrahydro-1,6-naphthyridin-3-yl)thieno[2,3-b]pyridin-3-amine] | 2.5 to 10

Test system: not listed separately
Assay: kinetic aqueous solubility in pH 7 citrate buffer
Assay type: physicochemical
Details: kinetic from dmso stock, pH 7 citrate buffer solution, read-out: Kinetic Aq solubility (μM pH 7)

Row | solubility kinetic [µM] | Structure (SMILES)
34 | 187 (≈ 80.5 µg/mL) | COCC[S+]([O-])c1sc2nc(-c3cnc4nn(C)cc4c3)nc(C(C)C)c2c1N (centres unmarked) [Compound 17, 4-isopropyl-6-((2-methoxyethyl)sulfinyl)-2-(2-methyl-2H-pyrazolo[3,4-b]pyridin-5-yl)thieno[2,3-d]pyrimidin-5-amine]
35 | 64 (≈ 28.2 µg/mL) | COCC[S@@+]([O-])c1sc2nc(-c3cc(=O)n(C)cn3)cc(-c3ccccc3)c2c1N [Compound A, reference compound]
